Earlier results on 2 molecules are cited in patent publication US20060089285A1, “Stabilized chlorine bleach in alkaline detergent composition and method of making and using the same” (priority 2004, published 2006).

By pKa is commonly meant the negative logarithm of the acid dissociation constant.

The conditions of series [1]: OCl-/HOCl equilibrium, ambient temperature.
The conditions of series [2]: in an alkaline liquid detergent; prior art statement.

Take `OCl` [HOCl]: the pKa in series [1] is given as 7.5. In the case of `OCl` [sodium hypochlorite bleach, Sodium hypochlorite], in series [2], the shelf stability result is “about 3 months”.
